Experimental data: PubChem BioAssay (NCI)
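Exposure lasted 48 hours, with cells grown in 96-well plates and compounds tested at five concentrations. GI50 is the concentration that inhibits growth by half. At the TGI there is no net growth.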

What was measured:
Test in all cases: NCI-60 cell line screen, 48 h
[1] = system: A498 renal
[2] = system: CCRF-CEM leukemia
[3] = system: HOP-62 NSCLC
[4] = system: HT29 colon
[5] = system: K-562 leukemia
[6] = system: KM12 colon
[7] = system: NCI-H23 lung
[8] = system: NCI-H522 lung
[9] = system: TK-10 renal
[10] = system: SF-268 CNS

CO[C@@]12[C@@H]3NC3CN1C1=C(C(=O)C(N)=C(C)C1=O)[C@@H]2COC(N)=O (stereo partly specified)
TGI [1]: 1.21 µM
GI50 [2]: 0.296 µM
TGI [2]: > 63.5 µM
TGI [3]: 8.21 µM
TGI [4]: 5.24 µM
GI50 [5]: 0.965 µM
TGI [5]: > 100 µM
GI50 [6]: 1.22 µM
TGI [6]: 7.22 µM
TGI [7]: 1.46 µM
GI50 [8]: 0.325 µM
TGI [8]: 2.13 µM
GI50 [9]: 1.68 µM
TGI [9]: 5.85 µM

COc1cccc(/C=C/C(=O)c2cc3c(N)c(C(=O)Nc4cccc5ccccc45)sc3nc2C)c1
GI50 [1]: 0.885 µM
TGI [1]: 2.74 µM
GI50 [2]: 0.256 µM
TGI [2]: > 50 µM
GI50 [3]: 1.14 µM
TGI [3]: 3.21 µM
GI50 [4]: 0.65 µM
TGI [4]: 2.06 µM
GI50 [5]: 0.562 µM
TGI [5]: > 50 µM
GI50 [6]: 1.4 µM
TGI [6]: 4.77 µM
GI50 [7]: 1.96 µM
TGI [7]: > 50 µM
GI50 [8]: 0.435 µM
TGI [8]: 3.06 µM
GI50 [10]: 1.89 µM
TGI [10]: > 50 µM
GI50 [9]: 1.78 µM
TGI [9]: > 50 µM

COc1ccc(CCN=C2CCC(C(=O)NCCc3ccc(OC)c(OC)c3)N2)cc1OC (stereo unspecified)
TGI [1]: > 100 µM
TGI [2]: > 100 µM
TGI [3]: > 100 µM
TGI [4]: > 100 µM
TGI [5]: > 100 µM
TGI [6]: > 100 µM
TGI [7]: > 100 µM
TGI [8]: > 100 µM
TGI [10]: > 100 µM
TGI [9]: > 100 µM

COc1ccc(CCc2cc(OC)c(OC)c(OC)c2)cc1
TGI [1]: 8.62 µM
TGI [2]: 12.4 µM
TGI [3]: 14 µM
TGI [4]: 1.44 µM
TGI [5]: 13.7 µM
TGI [6]: 5.77 µM
TGI [7]: 26.9 µM
TGI [8]: 0.115 µM
TGI [10]: 19.6 µM
TGI [9]: > 97.9 µM

O=S(=O)(c1ccc(O)c(C=Nc2ccc(Cl)cc2)c1)c1ccc(O)c(C=Nc2ccc(Cl)cc2)c1
TGI [1]: > 100 µM
TGI [2]: > 100 µM
TGI [3]: > 100 µM
TGI [4]: > 100 µM
TGI [5]: > 100 µM
TGI [6]: > 100 µM
TGI [7]: > 100 µM
TGI [8]: > 100 µM
TGI [10]: > 100 µM
TGI [9]: > 100 µM

Cc1cc(Cl)cc2c1NC(=O)C2=O (tested in a mixture with another compound)
TGI [1]: > 100 µM
TGI [2]: 44.9 µM
TGI [3]: > 100 µM
TGI [4]: > 100 µM
TGI [5]: > 100 µM
TGI [6]: > 100 µM
TGI [7]: > 100 µM
TGI [8]: 86 µM
TGI [10]: > 100 µM
TGI [9]: > 100 µM

N=C1C=C(N)C(=O)c2[nH]c(=O)ccc21
TGI [1]: 6.52 µM
TGI [2]: 5.81 µM
TGI [3]: 3.59 µM
TGI [4]: 4.5 µM
TGI [5]: 4.4 µM
TGI [6]: 3.21 µM
TGI [7]: 4.09 µM
TGI [8]: 3.54 µM
TGI [10]: 3.59 µM
TGI [9]: 24.9 µM

CNC(=O)CN(CC(N)=O)C(N)=O
TGI [1]: > 100 µM
TGI [2]: > 100 µM
TGI [3]: > 100 µM
TGI [4]: > 100 µM
TGI [5]: > 100 µM
TGI [6]: > 100 µM
TGI [7]: > 100 µM
TGI [8]: > 100 µM
TGI [10]: > 100 µM
TGI [9]: > 100 µM

O=C1C=CC2(C=C1)C[C@H](NC(=O)C(F)(F)F)C(=O)O2
TGI [1]: > 100 µM
TGI [2]: 50.9 µM
TGI [3]: > 100 µM
TGI [4]: > 100 µM
TGI [5]: 65.8 µM
TGI [6]: > 100 µM
TGI [7]: 69.4 µM
TGI [8]: 32.1 µM
TGI [10]: > 100 µM
TGI [9]: > 100 µM

COc1nc(NC2OC(COC(C)=O)C(OC(C)=O)C(OC(C)=O)C2OC(C)=O)c(-c2csc(N)n2)c(=O)n1C (stereo unspecified)
TGI [1]: > 100 µM
TGI [2]: > 100 µM
TGI [3]: > 100 µM
TGI [4]: > 100 µM
TGI [5]: > 100 µM
TGI [6]: > 100 µM
TGI [7]: > 100 µM
TGI [8]: > 100 µM
TGI [10]: > 100 µM
TGI [9]: > 100 µM

O=C1CN(/N=C/c2ccc(-c3ccc(F)cc3)o2)C(=O)N1
TGI [1]: > 100 µM
TGI [2]: > 100 µM
TGI [3]: > 100 µM
TGI [5]: > 100 µM
TGI [6]: > 100 µM
TGI [7]: > 100 µM
TGI [8]: 85 µM
TGI [10]: > 100 µM
TGI [9]: > 100 µM

CSC1=NCC2(S1)c1ccccc1N(C(=O)OC(C)(C)C)C2N1CCCCC1 (stereo unspecified)
GI50 [1]: > 100 µM
TGI [1]: > 100 µM
GI50 [2]: > 100 µM
TGI [2]: > 100 µM
GI50 [3]: 23.4 µM
TGI [3]: > 100 µM
GI50 [4]: > 100 µM
TGI [4]: > 100 µM
GI50 [5]: 73.8 µM
TGI [5]: > 100 µM
GI50 [6]: > 100 µM
TGI [6]: > 100 µM
GI50 [8]: 27.5 µM
TGI [8]: > 100 µM
GI50 [10]: 74.4 µM
TGI [10]: > 100 µM
GI50 [9]: > 100 µM
TGI [9]: > 100 µM

CC1(C)CC[C@]2(C(N)=O)CC[C@]3(C)C(=CC[C@@H]4[C@@]5(C)C/C(=C/c6ccncc6)C(=O)C(C)(C)[C@@H]5CC[C@]43C)[C@@H]2C1
GI50 [1]: 1.7 µM
TGI [1]: 3.38 µM
GI50 [2]: 2.13 µM
TGI [2]: 5.45 µM
GI50 [3]: 2.01 µM
TGI [3]: 4.71 µM
GI50 [5]: 2.28 µM
TGI [5]: 6.71 µM
GI50 [6]: 1.79 µM
TGI [6]: 3.41 µM
GI50 [7]: 2.89 µM
TGI [7]: 9.62 µM
GI50 [8]: 2.28 µM
TGI [8]: 7.76 µM
GI50 [10]: 2.15 µM
TGI [10]: 5.49 µM
GI50 [9]: 2.43 µM
TGI [9]: 7.5 µM

CCOP(=O)(Nc1ccc2oc(=O)c3ccccc3c2c1)OCC
TGI [1]: > 100 µM
TGI [2]: > 100 µM
TGI [3]: > 100 µM
TGI [4]: > 100 µM
TGI [5]: > 100 µM
TGI [7]: > 100 µM
TGI [8]: > 100 µM
TGI [10]: > 100 µM
TGI [9]: > 100 µM

CCCCCCCCCCCCCc1nn[nH]n1
TGI [1]: 32.2 µM
TGI [2]: 41.7 µM
TGI [3]: 32.8 µM
TGI [4]: 33 µM
TGI [6]: 32.9 µM
TGI [7]: 44.6 µM
TGI [8]: 42.6 µM
TGI [10]: 40.5 µM
TGI [9]: 43.7 µM

CCOc1cc(-c2ccc[nH]2)[nH]c1/C=C1\N=C(C)C(C(=O)OC)=C1C
GI50 [1]: 0.47 µM
TGI [1]: 1.92 µM
TGI [2]: 1.99 µM
GI50 [3]: 0.0361 µM
TGI [3]: 0.294 µM
GI50 [4]: < 0.0123 µM
TGI [4]: 1.06 µM
GI50 [6]: 0.0251 µM
TGI [6]: 1.35 µM
GI50 [7]: 0.0876 µM
TGI [7]: 1.92 µM
GI50 [8]: 0.0561 µM
TGI [8]: 0.318 µM
GI50 [10]: 0.0526 µM
TGI [10]: 1.81 µM
GI50 [9]: 0.0579 µM
TGI [9]: 1.5 µM

O=C(Nc1cccc(NC(=O)c2cc(=O)c3ccccc3o2)n1)c1cc(=O)c2ccccc2o1
TGI [1]: > 100 µM
TGI [2]: > 100 µM
TGI [3]: > 100 µM
TGI [5]: > 100 µM
TGI [6]: > 100 µM
TGI [7]: > 100 µM
TGI [8]: 48.3 µM
TGI [10]: > 100 µM
TGI [9]: > 100 µM

CCCCCCCCCCCCCCCCOC(=O)c1cc(O)cc(C(=O)OCCCCCCCCCCCCCCCC)c1
TGI [1]: > 100 µM
TGI [2]: > 100 µM
TGI [4]: > 100 µM
TGI [5]: > 100 µM
TGI [6]: > 100 µM
TGI [7]: > 100 µM
TGI [8]: > 100 µM
TGI [10]: > 100 µM
TGI [9]: > 100 µM

N#CC1C=Cc2ccccc2N1C(=O)Oc1ccccc1 (stereo unspecified)
TGI [1]: 96.5 µM
TGI [2]: 81.6 µM
TGI [4]: > 100 µM
TGI [5]: > 100 µM
TGI [6]: > 100 µM
TGI [7]: > 100 µM
TGI [8]: > 100 µM
TGI [10]: > 100 µM
TGI [9]: > 100 µM
